The values below come from US20250171437A1 (Agios Pharmaceuticals,Inc., priority 2022, published 2025).

For the first assay, the target named is T1, human PAH with the R408W mutation (A375 R408W cells) (Homo sapiens, UniProt P00439, R408W).
T1 construct: expressed in transfected cells
T1 sequence (P00439 1-452 R408W): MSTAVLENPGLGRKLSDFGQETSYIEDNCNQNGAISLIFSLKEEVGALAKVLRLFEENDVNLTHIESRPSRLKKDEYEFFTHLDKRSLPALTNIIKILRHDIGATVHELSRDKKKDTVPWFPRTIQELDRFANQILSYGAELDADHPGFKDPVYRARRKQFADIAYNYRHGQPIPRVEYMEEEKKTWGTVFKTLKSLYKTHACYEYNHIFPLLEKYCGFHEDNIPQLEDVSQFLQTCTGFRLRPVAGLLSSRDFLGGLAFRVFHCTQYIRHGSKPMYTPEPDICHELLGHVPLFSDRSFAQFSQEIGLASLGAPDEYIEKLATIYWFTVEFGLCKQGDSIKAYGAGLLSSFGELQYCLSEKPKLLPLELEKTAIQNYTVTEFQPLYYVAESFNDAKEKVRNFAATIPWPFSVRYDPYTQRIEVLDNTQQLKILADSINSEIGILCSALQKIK
As to the kind of experiment: Cell Based Phenylalanine Flux Assay. The conditions noted are these: A375 R408W cells; 24 hrs with compound, then 20 μM sepiapterin and 800 μM 13C9,15N-Phenylalanine for 4 hours; 13C-Tyrosine by LC-MS; average where tested multiple times. The gist of the method:
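Puromycin-selected A375 line, lentiviral hPAH R408W; cmpd 24 h, 37 °C, 5% CO2, 0.5% DMSO; then 20 μM sepiapterin + 800 μM 13C9,15N-Phe, 4 h; media extracted in 80% MeCN; 13C-Tyr by LC-MS; AC50 from 10-pt curves.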
Turning to `COc1ccc2c(C(=O)N3CCc4[nH]cnc4[C@H]3c3nc4cc(F)ccc4o3)cnn2c1` [Example 73, (S)-(4-(5-fluorobenzo[d]oxazol-2-yl)-6,7-dihydro-1H-imidazo[4,5-c]pyridin-5(4H)-yl)(6-methoxypyrazolo[1,5-a]pyridin-3-yl)methanone], the AC50 lay in the range of 500 to 1000 nM.

Take `O=C(c1oc(-c2ccncn2)nc1C(F)F)N1CCc2[nH]cnc2[C@H]1c1nc2cc(F)ccc2o1` [Example 526, (S)-(4-(difluoromethyl)-2-(pyrimidin-4-yl)oxazol-5-yl)(4-(5-fluorobenzo[d]oxazol-2-yl)-6,7-dihydro-1H-imidazo[4,5-c]pyridin-5(4H)-yl)methanone]: the AC50 was not above 500 nM.

On to `O=C(c1nnc(-c2ncccc2F)o1)N1CCc2[nH]cnc2[C@@H]1c1nc2c(F)ccc(F)c2o1` [Example 799, (R)-(4-(4,7-difluorobenzo[d]oxazol-2-yl)-6,7-dihydro-1H-imidazo[4,5-c]pyridin-5(4H)-yl)(5-(3-fluoropyridin-2-yl)-1,3,4-oxadiazol-2-yl)methanone], for which the AC50 lay in the range of 500 to 1000 nM.

Consider `Cc1ccc2nc([C@@H]3c4nc[nH]c4CCN3C(=O)c3ccnn3C(F)F)oc2c1` [Example 317, (S)-(1-(difluoromethyl)-1H-pyrazol-5-yl)(4-(6-methylbenzo[d]oxazol-2-yl)-6,7-dihydro-1H-imidazo[4,5-c]pyridin-5(4H)-yl)methanone], for which the AC50 is not above 500 nM.

With `C[C@@H](O)c1nc(C(F)F)c(C(=O)N2CCc3[nH]cnc3[C@H]2c2nc3c(F)cccc3o2)o1` [Example 229, (4-(difluoromethyl)-2-((R)-1-hydroxyethyl)oxazol-5-yl)((S)-4-(4-fluorobenzo[d]oxazol-2-yl)-6,7-dihydro-1H-imidazo[4,5-c]pyridin-5(4H)-yl)methanone], the AC50 was not above 500 nM.

Take `Cc1ccc2nc([C@H]3c4nc[nH]c4CCN3C(=O)c3ocnc3C(F)F)oc2c1` [Example 883, (R)-(4-(difluoromethyl)oxazol-5-yl)(4-(6-methylbenzo[d]oxazol-2-yl)-6,7-dihydro-1H-imidazo[4,5-c]pyridin-5(4H)-yl)methanone]: the AC50 is 500 to 1000 nM.

Regarding `Cn1nc(C(F)(F)F)nc1C(=O)N1CCc2[nH]cnc2[C@H]1c1nc2cccc(F)c2o1` [Example 279, (S)-(4-(7-fluorobenzo[d]oxazol-2-yl)-6,7-dihydro-1H-imidazo[4,5-c]pyridin-5(4H)-yl)(1-methyl-3-(trifluoromethyl)-1H-1,2,4-triazol-5-yl)methanone], the AC50 is 500 to 1000 nM.

Regarding `O=C(c1ocnc1C(F)F)N1CC2(CC2)c2[nH]cnc2[C@@H]1c1nc2cccc(F)c2o1` [Example 912, (R)-(4-(difluoromethyl)oxazol-5-yl)(4′-(7-fluorobenzo[d]oxazol-2-yl)spiro[cyclopropane-1,7′-imidazo[4,5-c]pyridin]-5′(1′H,4′H,6′H)-yl)methanone], the AC50 fell in the range of 500 to 1000 nM.

In the case of `O=C(c1oc(-c2cnccn2)nc1C(F)F)N1CCc2[nH]cnc2[C@H]1c1nc2cc(F)ccc2o1` [Example 527, (S)-(4-(difluoromethyl)-2-(pyrazin-2-yl)oxazol-5-yl)(4-(5-fluorobenzo[d]oxazol-2-yl)-6,7-dihydro-1H-imidazo[4,5-c]pyridin-5(4H)-yl)methanone], the half-maximal activity concentration (AC50) was not above 500 nM.

On to `O=C(c1oc(-c2cncnc2)nc1C(F)F)N1CCc2[nH]cnc2[C@H]1c1nc2cccc(F)c2o1` [Example 742, (S)-(4-(difluoromethyl)-2-(pyrimidin-5-yl)oxazol-5-yl)(4-(7-fluorobenzo[d]oxazol-2-yl)-6,7-dihydro-1H-imidazo[4,5-c]pyridin-5(4H)-yl)methanone], for which the AC50 is not above 500 nM.

Turning to `Cn1cncc1-c1nc(C(F)F)c(C(=O)N2CCc3[nH]cnc3[C@@H]2c2nc3cccc(F)c3o2)o1` [Example 691, (R)-(4-(difluoromethyl)-2-(1-methyl-1H-imidazol-5-yl)oxazol-5-yl)(4-(7-fluorobenzo[d]oxazol-2-yl)-6,7-dihydro-1H-imidazo[4,5-c]pyridin-5(4H)-yl)methanone], the AC50 is 500 to 1000 nM.

Regarding `Cn1cc(-c2nnc(C(=O)N3CCc4[nH]cnc4[C@@H]3c3nc4c(F)cc(F)cc4o3)o2)cn1` [Example 521, (R)-(4-(4,6-difluorobenzo[d]oxazol-2-yl)-6,7-dihydro-1H-imidazo[4,5-c]pyridin-5(4H)-yl)(5-(1-methyl-1H-pyrazol-4-yl)-1,3,4-oxadiazol-2-yl)methanone], the AC50 is 1000 to 5000 nM.

With `O=C(c1ocnc1C(F)F)N1CCc2[nH]cnc2[C@H]1c1nc2ccccc2o1` [Example 467, (S)-(4-(benzo[d]oxazol-2-yl)-6,7-dihydro-1H-imidazo[4,5-c]pyridin-5(4H)-yl)(4-(difluoromethyl)oxazol-5-yl)methanone], the AC50 is not above 500 nM.

Consider `Cn1ccc(-c2nnc(C(=O)N3CCc4[nH]cnc4[C@@H]3c3nc4c(F)cccc4o3)o2)n1` [Example 380, (R)-(4-(4-fluorobenzo[d]oxazol-2-yl)-1,4,6,7-tetrahydro-5H-imidazo[4,5-c]pyridin-5-yl)(5-(1-methyl-1H-pyrazol-3-yl)-1,3,4-oxadiazol-2-yl)methanone], for which the AC50 lay within 500 to 1000 nM.

As to `Cc1cccc2nc([C@@H]3c4nc[nH]c4CCN3C(=O)c3nnc(-c4ccn(C(F)F)n4)o3)oc12` [Example 860, (S)-(5-(1-(difluoromethyl)-1H-pyrazol-3-yl)-1,3,4-oxadiazol-2-yl)(4-(7-methylbenzo[d]oxazol-2-yl)-6,7-dihydro-1H-imidazo[4,5-c]pyridin-5(4H)-yl)methanone], the AC50 fell in the range of 500 to 1000 nM.

As for `CN(C)c1cn2ncc(C(=O)N3CCc4[nH]cnc4[C@@H]3c3nc4cc(F)ccc4o3)c2cc1Cl` [Example 208, (R)-(5-chloro-6-(dimethylamino)pyrazolo[1,5-a]pyridin-3-yl)(4-(5-fluorobenzo[d]oxazol-2-yl)-6,7-dihydro-1H-imidazo[4,5-c]pyridin-5(4H)-yl)methanone], the AC50 lay in the range of 1000 to 5000 nM.

As for `Cn1cc(-c2nc(C(F)(F)F)c(C(=O)N3CCc4[nH]cnc4[C@H]3c3nc4cccc(F)c4o3)o2)cn1` [Example 669, (S)-(4-(7-fluorobenzo[d]oxazol-2-yl)-6,7-dihydro-1H-imidazo[4,5-c]pyridin-5(4H)-yl)(2-(1-methyl-1H-pyrazol-4-yl)-4-(trifluoromethyl)oxazol-5-yl)methanone], the AC50 was not above 500 nM.

Take `CC(C)(O)c1nc(C(F)F)c(C(=O)N2CCc3[nH]cnc3[C@@H]2c2nc3cccc(Cl)c3o2)o1` [Example 424, (R)-(4-(7-chlorobenzo[d]oxazol-2-yl)-6,7-dihydro-1H-imidazo[4,5-c]pyridin-5(4H)-yl)(4-(difluoromethyl)-2-(2-hydroxypropan-2-yl)oxazol-5-yl)methanone]: the AC50 was not above 500 nM.

With `Cn1nc(C(F)F)nc1C(=O)N1CCc2[nH]cnc2[C@H]1c1nc2c(F)ccc(F)c2o1` [Example 486, (S)-(4-(4,7-difluorobenzo[d]oxazol-2-yl)-6,7-dihydro-1H-imidazo[4,5-c]pyridin-5(4H)-yl)(3-(difluoromethyl)-1-methyl-1H-1,2,4-triazol-5-yl)methanone], the AC50 fell in the range of 500 to 1000 nM.

Take `Cc1ccc2nc([C@H]3c4nc[nH]c4CCN3C(=O)c3nnc(-c4ccn(C)n4)o3)oc2c1` [Example 358, (R)-(5-(1-methyl-1H-pyrazol-3-yl)-1,3,4-oxadiazol-2-yl)(4-(6-methylbenzo[d]oxazol-2-yl)-6,7-dihydro-1H-imidazo[4,5-c]pyridin-5(4H)-yl)methanone]: the AC50 fell in the range of 1000 to 5000 nM.

Regarding `Cc1ncoc1C(=O)N1CCc2[nH]cnc2[C@@H]1c1nc2c(F)ccc(F)c2o1` [Example 808, (R)-(4-(4,7-difluorobenzo[d]oxazol-2-yl)-6,7-dihydro-1H-imidazo[4,5-c]pyridin-5(4H)-yl)(4-methyloxazol-5-yl)methanone], the AC50 is 1000 to 5000 nM.

Take `CC(O)c1nc(Br)c(C(=O)N2CCc3[nH]cnc3[C@@H]2c2nc3cc(F)ccc3o2)o1` (single isomer, unassigned) [Example 224]: the AC50 lay in the range of 1000 to 5000 nM.

Still in this assay, the particulars now being: A375 cells expressing R408W PAH; 24 hrs with compound, then 20 μM sepiapterin and 800 μM 13C9,15N-Phenylalanine for 4 hours; 13C-Tyrosine by LC-MS; average where tested multiple times.
Regarding `O=C(N1CCc2[nH]cnc2C1c1nc2cc(F)ccc2o1)C(F)(F)C1(O)CCC1` (centres unmarked), the AC50 was in the range of 1000 to 5000 nM.

`CC(C)(O)c1nnc(C(=O)N2CCc3[nH]cnc3C2c2nc3c(F)ccc(F)c3o2)o1` (centres unmarked): the AC50 lay within 1000 to 5000 nM.

Take `Fc1ccc2oc(C3c4nc[nH]c4CCN3Cc3cnco3)nc2c1` (centres unmarked): the AC50 is not below 5000 nM.

For the molecule `Cn1ncnc1C(=O)N1CCc2[nH]cnc2C1c1nc2c(F)cccc2o1` (centres unmarked), the AC50 was in the range of 1000 to 5000 nM.

As for `COCCc1ccc2c(C(=O)N3CCc4[nH]cnc4C3c3nc4cc(F)ccc4o3)cnn2c1` (centres unmarked), the AC50 was 1000 to 5000 nM.

For `O=C(c1cn[nH]c1Cl)N1CCc2[nH]cnc2C1c1nc2cc(F)ccc2o1` (centres unmarked), the AC50 was in the range of 1000 to 5000 nM.

Turning to `Cc1ccc2nc(C3c4nc[nH]c4CCN3C(=O)c3cnco3)oc2c1` (centres unmarked), the AC50 was in the range of 1000 to 5000 nM.

`O=C(c1nnc(-c2ccncc2)o1)N1CCc2[nH]cnc2C1c1nc2cc(F)ccc2o1` (centres unmarked): the AC50 fell in the range of 1000 to 5000 nM.

Turning to `O=C(c1cnco1)N1CCc2[nH]cnc2C1c1nc2ccc(F)cc2o1` (centres unmarked), the AC50 lay within 1000 to 5000 nM.

Regarding `COc1cccc2nc(C3c4nc[nH]c4CCN3C(=O)c3nc(C(C)(C)C)nn3C)oc12` (centres unmarked), the AC50 was 1000 to 5000 nM.
